Here are results for one compound from patent US5622498A, “Method for the treatment of periodontal disease by sustained delivery of a therapeutic agent to the periodontal pocket, composition of matter therefor and apparatus for the administration thereof” (priority 1993, dated 1997).

What is called MIC is the smallest concentration in the dilution series that meets the test's criterion for growth inhibition.

Data set [1] relates to organisms associated with periodontal disease. As to conditions: cited from earlier work.
The test system of data set [2] is gram-positive and gram-negative organisms. The conditions noted are these: cited from earlier work.
For data set [3] the following is noted: dog, in vivo.
Text: Pharmacokinetic investigation of minocycline-containing periodontal microcapsules was undertaken to produce a dosage form that could be administered to the periodontal pocket and that would yield minocycline concentrations exceeding the MIC's (0.05-1.56 mcg/ml) for organisms associated with periodontal disease for extended periods of time. Therefore, a study to evaluate four different minocycline periodontal formulations relative to determining minocycline levels in crevicular fluid was conducted in a dog model. The study utilized beagle dogs with surgically created "chronic" intrabony periodontal defects. […]
In sequence, the defects were created as follows: First, the lower fourth premolars were extracted, sockets were allowed to heal for one month, and dogs received a full mouth scaling and tooth cleaning. […] Dogs were monitored for an additional four weeks.
For evaluation of crevicular levels of minocycline, dogs were placed under general anesthesia, and the various formulations were administered into the periodontal pockets associated with the created defects. […] The strip was then removed, and the relative amount of fluid was determined by a Periotron 6000 instrument. […]
Samples of gingival fluid are collected as described above, and analyzed. […]

Regarding `CN(C)c1ccc(O)c2c1C[C@H]1C[C@H]3[C@H](N(C)C)C(O)=C(C(N)=O)C(=O)[C@@]3(O)C(O)=C1C2=O` [minocycline, 7-dimethylamino-6-deoxy-6-demethyltetracycline], the MIC in data set [1] was 0.05 to 1.56 µg/mL. For the same compound, the antibacterial activity result in data set [2] is “activity against a wide range of gram-positive and gram-negative organisms”. The “period for which minimum inhibitory concentrations (MIC's) can be achieved” value in data set [3] is “up to two”.
